Measured values taken from patent US11572399B2, “Long-acting GIP peptide analogues” (University of Copenhagen, priority 2017, dated 2023).
Peptide text beside a SMILES is read from it. * marks the point of attachment. Palmitoyl = CCCCCCCCCCCCCCCC(=O)*; Lauroyl = CCCCCCCCCCCC(=O)*

Biological target: T1, human GIP receptor (Homo sapiens, UniProt P48546)
T1 construct: host or cells: COS-7, transient transfection (calcium phosphate), cDNA in pCMV-Script
T1 sequence (P48546 22-466): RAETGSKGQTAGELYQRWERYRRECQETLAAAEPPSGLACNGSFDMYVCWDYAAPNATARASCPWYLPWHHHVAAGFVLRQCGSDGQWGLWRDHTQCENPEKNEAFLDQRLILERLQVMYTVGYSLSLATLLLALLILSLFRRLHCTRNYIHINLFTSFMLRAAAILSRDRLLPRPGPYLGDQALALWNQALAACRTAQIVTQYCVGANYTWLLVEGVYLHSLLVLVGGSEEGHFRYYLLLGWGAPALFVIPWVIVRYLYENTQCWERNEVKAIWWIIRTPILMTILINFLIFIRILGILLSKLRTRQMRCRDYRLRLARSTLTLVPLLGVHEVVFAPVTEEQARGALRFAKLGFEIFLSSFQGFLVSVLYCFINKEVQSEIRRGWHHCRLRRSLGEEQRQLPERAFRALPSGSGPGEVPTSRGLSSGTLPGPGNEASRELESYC
Assay: cAMP accumulation assay, agonism (ligand alone)
Format: cell-based
Details: COS-7 cells, Table 1; for Emax: COS-7, intrinsic cAMP activity; for EC50: read-out: cAMP agonism nM (EC50)
Method: COS-7 cells were cultured at 10% CO2 and 37° C. in Dulbecco's modified Eagle's medium 1885 supplemented with 10% fetal bovine serum, 2 mM glutamine, 180 units/ml penicillin, and 45 µg/ml streptomycin. Transient transfection of the COS-7 cells for cAMP accumulation and competition binding was performed using the calcium phosphate precipitation method with the addition of chloroquine^46-47.
Transient transfected COS-7 cells expressing the human GIP receptor were seeded in white 96-well plates with a density of 3.5*10^4/well. The day after, the cells were washed twice with Hepes buffered saline (HBS) buffer and incubated with HBS and 1 mM 3-isobutyl-1-methylxanthine (IBMX) for 30 min at 37° C. To test for agonistic properties, ligands were added and incubated for 30 min at 37° C. In order to test for antagonistic properties, the cells were preincubated with the antagonists for 10 min prior to the addition of the agonist and subsequent incubated for 20 additional min. The HitHunter™ cAMP XS assay (DiscoveRx) was carried out according to the manufacturer's instructions.
IC50, EC50, and Ki values were determined by nonlinear regression. These were carried out with the GraphPad Prism 6.0 software (GraphPad, San Diego, Calif., USA) and Microsoft Excel™. Ki values were based on the formula for one class of binding sites in homologous competition binding studies and the Cheng Prussoffs formula, respectively (DeBlasi et al., 1989). To determine the HSA binding potential, the fold change in affinity (as determined by IC50) was calculated as IC50 (plus HSA)/IC50 (minus HSA).

Compound: CCCCCCCCCCCCCCCC(=O)NCCCC[C@H](NC(=O)[C@H](CCC(N)=O)NC(=O)[C@H](C)NC(=O)[C@H](CC(C)C)NC(=O)[C@H](CC(C)C)NC(=O)[C@H](Cc1c[nH]c2ccccc12)NC(=O)[C@H](CC(N)=O)NC(=O)[C@@H](NC(=O)[C@H](Cc1ccccc1)NC(=O)[C@H](CC(=O)O)NC(=O)[C@H](CCC(N)=O)NC(=O)[C@H](CCC(N)=O)NC(=O)[C@H](Cc1c[nH]cn1)NC(=O)[C@@H](NC(=O)[C@H](CCCCN)NC(=O)[C@H](CC(=O)O)NC(=O)[C@H](CCSC)NC(=O)[C@H](C)NC(=O)[C@@H](NC(=O)[C@H](CO)NC(=O)[C@H](Cc1ccc(O)cc1)NC(=O)[C@H](CC(=O)O)NC(=O)[C@H](CO)NC(=O)[C@@H](NC(=O)[C@H](Cc1ccccc1)NC(=O)[C@@H](NC(=O)CNC(=O)[C@@H](N)CCC(=O)O)[C@@H](C)O)[C@@H](C)CC)[C@@H](C)CC)[C@@H](C)CC)C(C)C)C(N)=O [AT106, [hGIP(3-30)NH2—C16/30]]
- Emax: 64%

Compound: CCCCCCCCCCCCCC(=O)NCCCC[C@H](NC(=O)[C@H](CCC(N)=O)NC(=O)[C@H](C)NC(=O)[C@H](CC(C)C)NC(=O)[C@H](CC(C)C)NC(=O)[C@H](Cc1c[nH]c2ccccc12)NC(=O)[C@H](CC(N)=O)NC(=O)[C@@H](NC(=O)[C@H](Cc1ccccc1)NC(=O)[C@H](CC(=O)O)NC(=O)[C@H](CCC(N)=O)NC(=O)[C@H](CCC(N)=O)NC(=O)[C@H](Cc1c[nH]cn1)NC(=O)[C@@H](NC(=O)[C@H](CCCCN)NC(=O)[C@H](CC(=O)O)NC(=O)[C@H](CCSC)NC(=O)[C@H](C)NC(=O)[C@@H](NC(=O)[C@H](CO)NC(=O)[C@H](Cc1ccc(O)cc1)NC(=O)[C@H](CC(=O)O)NC(=O)[C@H](CO)NC(=O)[C@@H](NC(=O)[C@H](Cc1ccccc1)NC(=O)[C@@H](NC(=O)CNC(=O)[C@@H](N)CCC(=O)O)[C@@H](C)O)[C@@H](C)CC)[C@@H](C)CC)[C@@H](C)CC)C(C)C)C(N)=O [AT112, [hGIP(3-30)NH2—C14/30]]
- Emax: 29%

Compound: CCCCCCCCCCCCCCCCCC(=O)NCCCC[C@H](NC(=O)[C@H](CCC(N)=O)NC(=O)[C@H](C)NC(=O)[C@H](CC(C)C)NC(=O)[C@H](CC(C)C)NC(=O)[C@H](Cc1c[nH]c2ccccc12)NC(=O)[C@H](CC(N)=O)NC(=O)[C@@H](NC(=O)[C@H](Cc1ccccc1)NC(=O)[C@H](CC(=O)O)NC(=O)[C@H](CCC(N)=O)NC(=O)[C@H](CCC(N)=O)NC(=O)[C@H](Cc1c[nH]cn1)NC(=O)[C@@H](NC(=O)[C@H](CCCCN)NC(=O)[C@H](CC(=O)O)NC(=O)[C@H](CCSC)NC(=O)[C@H](C)NC(=O)[C@@H](NC(=O)[C@H](CO)NC(=O)[C@H](Cc1ccc(O)cc1)NC(=O)[C@H](CC(=O)O)NC(=O)[C@H](CO)NC(=O)[C@@H](NC(=O)[C@H](Cc1ccccc1)NC(=O)[C@@H](NC(=O)CNC(=O)[C@@H](N)CCC(=O)O)[C@@H](C)O)[C@@H](C)CC)[C@@H](C)CC)[C@@H](C)CC)C(C)C)C(N)=O [AT115, [hGIP(3-30)NH2—C18/30]]
- EC50: 134 nM

Compound: CCCCCCCCCCCC(=O)NCCCC[C@H](NC(=O)[C@H](CCC(N)=O)NC(=O)[C@H](C)NC(=O)[C@H](CC(C)C)NC(=O)[C@H](CC(C)C)NC(=O)[C@H](Cc1c[nH]c2ccccc12)NC(=O)[C@H](CC(N)=O)NC(=O)[C@@H](NC(=O)[C@H](Cc1ccccc1)NC(=O)[C@H](CC(=O)O)NC(=O)[C@H](CCC(N)=O)NC(=O)[C@H](CCC(N)=O)NC(=O)[C@H](Cc1c[nH]cn1)NC(=O)[C@@H](NC(=O)[C@H](CCCCN)NC(=O)[C@H](CC(=O)O)NC(=O)[C@H](CCSC)NC(=O)[C@H](C)NC(=O)[C@@H](NC(=O)[C@H](CO)NC(=O)[C@H](Cc1ccc(O)cc1)NC(=O)[C@H](CC(=O)O)NC(=O)[C@H](CO)NC(=O)[C@@H](NC(=O)[C@H](Cc1ccccc1)NC(=O)[C@@H](N)[C@@H](C)O)[C@@H](C)CC)[C@@H](C)CC)[C@@H](C)CC)C(C)C)C(N)=O [AT120, [hGIP(5-30)NH2—C12/30]]
- Emax: 0%

Compound: CCCCCCCCCCCCCC(=O)NCCCC[C@H](NC(=O)[C@H](CCC(N)=O)NC(=O)[C@H](C)NC(=O)[C@H](CC(C)C)NC(=O)[C@H](CC(C)C)NC(=O)[C@H](Cc1c[nH]c2ccccc12)NC(=O)[C@H](CC(N)=O)NC(=O)[C@@H](NC(=O)[C@H](Cc1ccccc1)NC(=O)[C@H](CC(=O)O)NC(=O)[C@H](CCC(N)=O)NC(=O)[C@H](CCC(N)=O)NC(=O)[C@H](Cc1c[nH]cn1)NC(=O)[C@@H](NC(=O)[C@H](CCCCN)NC(=O)[C@H](CC(=O)O)NC(=O)[C@H](CCSC)NC(=O)[C@H](C)NC(=O)[C@@H](NC(=O)[C@H](CO)NC(=O)[C@H](Cc1ccc(O)cc1)NC(=O)[C@H](CC(=O)O)NC(=O)[C@H](CO)NC(=O)[C@@H](NC(=O)[C@H](Cc1ccccc1)NC(=O)[C@@H](N)[C@@H](C)O)[C@@H](C)CC)[C@@H](C)CC)[C@@H](C)CC)C(C)C)C(N)=O [AT123, [hGIP(5-30)NH2—C14/30]]
- Emax: 64%

Compound: CCCCCCCCCCCCCCCC(=O)NCCCC[C@H](NC(=O)[C@H](CCC(N)=O)NC(=O)[C@H](C)NC(=O)[C@H](CC(C)C)NC(=O)[C@H](CC(C)C)NC(=O)[C@H](Cc1c[nH]c2ccccc12)NC(=O)[C@H](CC(N)=O)NC(=O)[C@@H](NC(=O)[C@H](Cc1ccccc1)NC(=O)[C@H](CC(=O)O)NC(=O)[C@H](CCC(N)=O)NC(=O)[C@H](CCC(N)=O)NC(=O)[C@H](Cc1c[nH]cn1)NC(=O)[C@@H](NC(=O)[C@H](CCCCN)NC(=O)[C@H](CC(=O)O)NC(=O)[C@H](CCSC)NC(=O)[C@H](C)NC(=O)[C@@H](NC(=O)[C@H](CO)NC(=O)[C@H](Cc1ccc(O)cc1)NC(=O)[C@H](CC(=O)O)NC(=O)[C@H](CO)NC(=O)[C@@H](NC(=O)[C@H](Cc1ccccc1)NC(=O)[C@@H](N)[C@@H](C)O)[C@@H](C)CC)[C@@H](C)CC)[C@@H](C)CC)C(C)C)C(N)=O [AT126, [hGIP(5-30)NH2—C16/30]]
- Emax: 75%
- EC50: 316 nM

Compound: CCCCCCCCCCCC(=O)NCCCC[C@H](NC(=O)[C@H](CCC(N)=O)NC(=O)[C@H](C)NC(=O)[C@H](CC(C)C)NC(=O)[C@H](CC(C)C)NC(=O)[C@H](Cc1c[nH]c2ccccc12)NC(=O)[C@H](CC(N)=O)NC(=O)[C@@H](NC(=O)[C@H](Cc1ccccc1)NC(=O)[C@H](CC(=O)O)NC(=O)[C@H](CCC(N)=O)NC(=O)[C@H](CCC(N)=O)NC(=O)[C@H](C)NC(=O)[C@@H](NC(=O)[C@H](CCCCN)NC(=O)[C@H](CCC(=O)O)NC(=O)[C@H](CCSC)NC(=O)[C@H](C)NC(=O)[C@@H](NC(=O)[C@H](CO)NC(=O)[C@H](Cc1ccc(O)cc1)NC(=O)[C@H](CC(=O)O)NC(=O)[C@H](CO)NC(=O)[C@@H](NC(=O)[C@H](Cc1ccccc1)NC(=O)[C@@H](NC(=O)CNC(=O)[C@@H](N)CCC(=O)O)[C@@H](C)O)[C@@H](C)CC)[C@@H](C)CC)[C@@H](C)CC)C(C)C)C(N)=O [AT130, [hGIP(3-30)NH2[D15E; H18A]-C12/30]] (H-EGTFISDYSIAMEKIAQQDFVNWLLAQK(Lauroyl)-NH2; N-terminus assumed)
- Emax: 49%

Compound: CCCCCCCCCCCCCCCC(=O)NCCCC[C@H](NC(=O)[C@@H](NC(=O)[C@H](CCCNC(=N)N)NC(=O)[C@H](CC(=O)O)NC(=O)[C@H](CCSC)NC(=O)[C@H](C)NC(=O)[C@@H](NC(=O)[C@H](CO)NC(=O)[C@H](Cc1ccc(O)cc1)NC(=O)[C@H](CC(=O)O)NC(=O)[C@H](CO)NC(=O)[C@@H](NC(=O)[C@H](Cc1ccccc1)NC(=O)[C@@H](NC(=O)CNC(=O)[C@@H](N)CCC(=O)O)[C@@H](C)O)[C@@H](C)CC)[C@@H](C)CC)[C@@H](C)CC)C(=O)N[C@@H](CCC(N)=O)C(=O)N[C@@H](CCC(N)=O)C(=O)N[C@@H](CC(=O)O)C(=O)N[C@@H](Cc1ccccc1)C(=O)N[C@H](C(=O)N[C@@H](CC(N)=O)C(=O)N[C@@H](Cc1c[nH]c2ccccc12)C(=O)N[C@@H](CC(C)C)C(=O)N[C@@H](CC(C)C)C(=O)N[C@@H](C)C(=O)N[C@@H](CCC(N)=O)C(=O)N[C@@H](CCCNC(=N)N)C(N)=O)C(C)C [AT144, [hGIP(3-30)NH2[K16R; H18K; K30R]-C16/18]] (H-EGTFISDYSIAMDRIK(Palmitoyl)QQDFVNWLLAQR-NH2; N-terminus assumed)
- Emax: 0%
